Measured values as given in patent publication US6592821B1, “Focusing of microparticles in microfluidic systems” (Caliper Technologies Corp., priority 1999, dated 2003).

Experiments:
Format in all cases: cell-based
[1] = system: HL-60 cells; assay: TUNEL assay for apoptosis in microfluidic device; conditions: HL-60 cells treated for 6 hours; FIG. 8, untreated control FIG. 9
[2] = system: U937 cells; assay: TUNEL assay for apoptosis in microfluidic device; conditions: U937 cells treated to induce apoptosis; FIG. 5, untreated control FIG. 4
Procedure: A TUNEL assay (TdT (Terminal deoxynucleotidyl transferase)-mediated dUTP Nick End Labeling) was used to measure cellular apoptosis in accordance with the above-described methods and systems. In a TUNEL Assay, damaged DNA is labeled with fluorescinated nucleotides. Terminal deoxynucleotidyl transferase (TdT) binds to exposed 3′ ends of DNA fragments generated in response to apoptotic signals and catalyzes the addition of fluorescein-labeled deoxynucleotides. U937 cells were treated with Campthotecin to induce apoptosis. The cells were then harvested and fixed with 4% formaldehyde and stored in 80% ethanol at +4° C. until labeling was performed.
The cells were rehydrated in TBS buffer. They were then treated with 20 μg/ml of proteinase K for 5 minutes and resuspended in equilibration buffer. The cells were incubated in a working TdT labeling reaction mixture from Oncogene Research Products containing TdtT enzyme and FragEL TdT labeling reaction mix. […]
After washing the cells in TBS, they were resuspended in Hanks' Balanced Salt Solution with 10% OPTIPREP at 5×10^6/ml and loaded in a microfluidic device having the channel geometry shown in FIG. 1A, for analysis. Fluorescence was detected using 488 nm excitation, while emission was read at 525 nm and 680 nm.

[3] = system: HL60 cells; assay: Annexin-V assay for apoptosis in microfluidic device; conditions: HL60 cells treated for four hours; FIG. 12, untreated control FIG. 13
[4] = system: U937 cells; assay: as above; conditions: U937 cells treated to induce apoptosis; FIG. 7, untreated control FIG. 6
Procedure: In an Annexin-V assay, change in the outer membrane of apoptotic cells is detected. A membrane component, phosphatidylserine (PS) is translocated to the outer layer. Annexin-V binds to PS and is conjugated to biotin to allow secondary reactions to fluorescently labeled Streptavidin for detection. U937 cells were treated with Campthotecin to induce apoptosis. The cells were harvested and washed in phosphate buffered saline (PBS). Cells were incubated with Annexin-V-Biotin (Boehringer Mannheim) in HEPES buffer, and then incubated with 5 μg streptavidin-Cy5 (Amersham) and […] of Calcein-AM dye in HEPES buffer. The HEPES buffer solution contained 10 mM HEPES, pH 7.4; 140 mM NaCl; and a 5 mM CaCl2. The cells were washed and resuspended in HEPES buffer with 8.5% sucrose and loaded in a microfluidic device for analysis. Fluorescence was detected using excitation at 488 nm and 635 nm, and emission was read at 525 nm and 682 nm.

## CC[C@@]1(O)C(=O)OCc2c1cc1n(c2=O)Cc2cc3ccccc3nc2-1 [Campthotecin]
[1]
  apoptotic cells labeled at DNA damage points vs total cell count: almost all cells had sustained apoptotic DNA damage
[2]
  apoptotic cells (fluorescein end labeled nucleic acid peaks vs SYTO-62 cell peaks): corresponding peaks are seen on both the lower and upper lines, indicating the presence of apoptotic cells
[3]
  apoptotic cells (Annexin-V-Cy5 labeling vs Calcein live cell count): almost all cells are apoptotic
[4]
  apoptotic cells (Annexin-V-Cy5 peaks vs Calcein live cell count): much greater number of peaks representing apoptotic cells
